Data: US20010051630A1, “Use of hydroxylamine derivatives, and method and preparations for increasing the tolerance of field crops against weather stresses” (priority 1997, published 2001)
Marks after values point to notes of the source that are not given here.

Assays:
[1] = test system: Mo 17 inbred maize line; experiment: CSVT (Complex Stressing Vigour Test), seeds soaked in active agent, Mo 17 maize; format: in vivo; conditions: seeds soaked in 10 mg/l active agent, * = significant vs control P < 0.05
Method: (§1) In this experiment the tolerance of maize, soybean and pepper seeds treated with the active agent against cold was tested. This test imposed temperature and oxygen deficiency stresses on the seeds and was carried out according to Barla-Szabó and Dolinka CSVT (Complex Stressing Vigour Test). For a single test, two hundred seeds were soaked for 48 hours at 25° C. and another 48 hours at 5° C in 150 ml distilled water containing the active agent in 10 mg/l concentration. Following the 96 hours of soaking, the seeds were further germinated between rolled wet paper for 96 hours at 25° C. There were 25 seeds in each roll, the rolls were placed vertically into containers and covered with a plastic bag in order to reduce evaporation. During the whole procedure the seeds were kept in darkness. At the end of the experiment the number of normally developing and ungerminated seeds were recorded. The length of the normal seedlings was measured and the average length of the five longest seedlings was calculated. Seedlings longer than 0.33 times the average length of the five longest seedlings were considered to be of high vigour, and low vigour seedlings were shorter than this length.

[2] = test system: McCall soybeans; experiment: CSVT, McCall soybeans; format: in vivo, soybean
Method: as §1, with “darkness.” for “darkness. At the end of the experiment the number of normally developing and ungerminated seeds were recorded. The length of the normal seedlings was measured and the average length of the five longest seedlings was calculated. Seedlings longer than 0.33 times the average length of the five longest seedlings were considered to be of high vigour, and low vigour seedlings were shorter than this length.”
At the end of the experiment the number of normally developing and ungerminated seeds were recorded. The length of the normal seedlings was measured and the average length of the five longest seedlings was calculated. Seedlings longer than 0.33 times the average length of the five longest seedlings were considered to be of high vigour, and low vigour seedlings were shorter than this length.
When applying the CSVT test, the following results were obtained (Table 4.).

[3] = test system: Seaway bean cultivar; experiment: Drought tolerance of beans, part a (5 days hardening); format: in vivo; conditions: 7 days without water, one week regeneration
Excerpt: Based on the experiences of our preliminary experiments, the plants were hardened before the application of the active agent by withholding the water for a few days, until the first signs of withering appeared. Then the plants were watered and the active agent was either dissolved in the water, or sprayed to the plants directly. Afterwards, the plants were subjected to different periods of drought according to the given experiment, watered again, and after a week-long regeneration period, the survival ratio was determined.
a) Seaway bean cultivar was hardened for 5 days by withholding the water. Afterwards the plantlets were watered for two days normally. During this time, a 10 mg/liter and 100 mg/liter concentration solution of the active agent was applied two times a day dissolved in water or by direct spraying. Then the water was withheld for 7 days, and after a week-long regeneration period, the survival ratio was determined.

[4] = test system: soybean cv. Bólyi 44; experiment: Drought tolerance of soybeans; format: in vivo; conditions: 6 days hardening; 50 mg/liter in the water; 4 days without watering, one week regeneration
Method: Soybeans of soybean cv. Bólyi 44 were hardened for 6 days by withholding the water. This was followed by two days of watering, and the active agent was applied in the water. The concentration of the solution of the active agent was 50 mg/liter. After a 4-day-long cease of watering and a one week regeneration period, the number of surviving plants was recorded.
Watering was ceased for 10 days for a certain group of plants in the experiment. It was observed that almost every plant perished. Each of the 4 surviving plants had previously been treated with the active agent.

[5] = test system: soybean cv. Bólyi 44; experiment: Field soybean cultivation, yield; format: in vivo
Method: The experiment was performed using soybean cv. Bólyi 44. Before sowing, the seeds were treated with Rhyzobium Japonicum nitrogen-binding bacterium, which forms a root nodule providing 50-70% of the nitrogen demand of the plant.
The examined compounds were applied by pearling the seeds; 1 ml of pearling agent containing 1 mg of active agent in a 5% aqueous PVA solution was used for 100 seeds.
The plants were sown after soil preparation in the autumn, using a crop rotation system, 3-5 cm deep in the ground, with a 45-50 cm row distance, a 5 cm plant distance and 450,000-500,000 plant/ha density. The date of sowing was Apr. 15, 1997. During the development of the plant, the usual cultivation procedures were followed and the usual pesticides were used. The harvest took place in September-October, with the water content of the grains being between 16-18%.

CC(C)(C)NCC(O)CONC(=O)c1cccc(C(F)(F)F)c1.Cl (centres unmarked) [Compound 1, N-[2-hydroxy-3-(1,1-dimethylethyl-amino)propoxy]-3-trifluoromethyl-benzamide monohydrochloride]
Ratio of high vigour plants (%) [1]: 29* %
Ratio of high vigour plants (%) [2]: 43* %
survival (%), Spraying (100 mg/l) [3]: 71* %
survival (%), Watering (10 mg/l) [3]: 30* %
survival (%), Watering (100 mg/l) [3]: 41* %
Survival (%) [4]: 25* %
Weight of the crop (kg/m^2) ([5]; seeds pearled with 1 mg active agent in 1 ml 5% PVA per 100 seeds): 0.55 kg/m^2
Improvement compared to the control (%) ([5]; weight of the crop): 22.2%
